# Source: patent US7943770B2, “Fused quinoline derivative and use thereof” (Takeda Pharmaceutical Company Limited, priority 2004, dated 2011)
# Assays:
# hNK2 receptor [1] = molecular target: T1, hNK2 receptor (Homo sapiens, UniProt P21452); assay: Antagonistic activity determined by intracellular calcium concentration (FLIPR) using Neurokinin A and hNK2 receptor-expressing CHO cell; type: cell-based; conditions: increase in intracellular calcium due to Neurokinin A, hNK2 receptor-expressing CHO cells
# T1 construct: host or cells: CHO cells
# T1 sequence (P21452 1-398): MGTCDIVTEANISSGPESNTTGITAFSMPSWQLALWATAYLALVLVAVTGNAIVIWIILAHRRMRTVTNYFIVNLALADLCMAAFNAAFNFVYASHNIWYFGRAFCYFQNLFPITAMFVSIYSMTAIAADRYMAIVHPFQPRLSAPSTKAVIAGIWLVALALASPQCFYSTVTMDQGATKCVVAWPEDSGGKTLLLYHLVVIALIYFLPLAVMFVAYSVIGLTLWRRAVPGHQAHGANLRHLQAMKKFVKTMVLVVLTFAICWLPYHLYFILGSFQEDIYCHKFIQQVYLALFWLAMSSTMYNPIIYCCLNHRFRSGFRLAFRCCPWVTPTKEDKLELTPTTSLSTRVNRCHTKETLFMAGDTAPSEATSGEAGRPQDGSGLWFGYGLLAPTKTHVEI
# Procedure: hNK2 receptor-expressing CHO cells were seeded on a 96 well plate at 3×10^4 cell/well and cultured for 24 hrs. Then the medium was aspirated and 20 mM HEPES (pH 7.4)—HBSS buffer (50 μL) was added. Thereto was added prepared 1× Reagent buffer (50 μL, FLIPR Calcium Assay Kit: Molecular Devices Corporation, Japan) and the mixture was reacted at 37° C. for 1 hr. A test compound diluted with 20 mM HEPES (pH 7.4)—HBSS buffer (50 μL, containing 0.4% dimethyl sulfoxide) was added to examine antagonistic activity of the test compound. Thereafter, 20 nM Neurokinin A solution (50 μL) was added, and change in the intracellular calcium concentration were measured by FLIPR (Molecular Devices Corporation, Japan).
# hNK2 receptor [2] = molecular target: T1, hNK2 receptor; assay: Radio-ligand ([125I]-NKA) receptor binding inhibitory activity using membrane fraction of hNK2 receptor-expressing CHO cell; conditions: membrane fraction of hNK2 receptor-expressing CHO cells, 25° C., 30 min
# Procedure, shortened: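 Inhibition of [125I]-NKA binding ([…] solution added) measured after 30 min at 25 °C using hNK2-CHO membrane fraction (20 μg/mL suspension) in pH 7.4 Tris buffer containing MnCl2, BSA and protease inhibitors. Filter-bound counts read; activity calculated as fraction of specific binding, non-specific defined with unlabeled NKA.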
Assay of Antagonistic activity Inhibitory rate (%) (hNK2 receptor [1]; test compound 1 μM),Assay of Antagonistic activity Inhibitory rate (%) (hNK2 receptor [1]; test compound 10 μM),IC50 (hNK2 receptor [2]) [nM],SMILES
45,97,,O=C(N[C@@H]1CCCC[C@@H]1C(=O)N1CC[C@@H]2[C@H](c3ccccc3)Nc3ccccc3[C@@H]21)c1ccccc1 [Compound of Example 1]
,,< 10,"NC(=O)c1ccc(C(=O)N[C@@H]2CCCC[C@@H]2C(=O)N2CC[C@@H]3[C@H](c4ncc[nH]4)Nc4ccccc4[C@@H]32)cc1 [Example 306, N-((1R,2S)-2-{[(3aR,4R,9bR)-4-(1H-Imidazol-2-yl)-2,3,3a,4,5,9b-hexahydro-1H-pyrrolo[3,2-c]quinolin-1-yl]carbonyl}cyclohexyl)terephthalamide]"
,,< 1,"N#Cc1ccc(NC(=O)N[C@@H]2CCCC[C@@H]2C(=O)N2CC[C@@H]3[C@H](c4ncc[nH]4)Nc4ccccc4[C@@H]32)cc1 [Example 307, N-(4-Cyanophenyl)-N′-((1R,2S)-2-{[(3aR,4R,9bR)-4-(1H-imidazol-2-yl)-2,3,3a,4,5,9b-hexahydro-1H-pyrrolo[3,2-c]quinolin-1-yl]carbonyl}cyclohexyl)urea]"
,,< 1,"N#Cc1cccc(C(=O)N[C@@H]2CCCC[C@@H]2C(=O)N2CC[C@@H]3[C@H](c4ncc[nH]4)Nc4ccccc4[C@@H]32)c1 [Example 308, 3-Cyano-N-((1R,2S)-2-{[(3aR,4R,9bR)-4-(1H-imidazol-2-yl)-2,3,3a,4,5,9b-hexahydro-1H-pyrrolo[3,2-c]quinolin-1-yl]carbonyl}cyclohexyl)benzamide]"
,,< 1,"Cc1cc(C(=O)N[C@@H]2CCCC[C@@H]2C(=O)N2CC[C@@H]3[C@H](c4ncc[nH]4)Nc4ccccc4[C@@H]32)ccc1C#N [Example 309, 4-Cyano-N-((1R,2S)-2-{[(3aR,4R,9bR)-4-(1H-imidazol-2-yl)-2,3,3a,4,5,9b-hexahydro-1H-pyrrolo[3,2-c]quinolin-1-yl]carbonyl}cyclohexyl)-3-methylbenzamide]"
,,< 1,"O=C(N[C@@H]1CCCC[C@@H]1C(=O)N1CC[C@@H]2[C@H](c3ncc[nH]3)Nc3ccccc3[C@@H]21)c1ccc2[nH]nnc2c1 [Example 310, N-((1R,2S)-2-{[(3aR,4R,9bR)-4-(1H-Imidazol-2-yl)-2,3,3a,4,5,9b-hexahydro-1H-pyrrolo[3,2-c]quinolin-1-yl]carbonyl}cyclohexyl)-1H-1,2,3-benzotriazole-5-carboxamide]"
,,< 10,"O=C(N[C@@H]1CCCC[C@@H]1C(=O)N1CC[C@H]2[C@@H](c3ncc[nH]3)Nc3ccccc3[C@H]21)c1ccccc1 [Example 321, N-((1R,2S)-2-{[(3aS,4S,9bS)-4-(1H-Imidazol-2-yl)-2,3,3a,4,5,9b-hexahydro-1H-pyrrolo[3,2-c]quinolin-1-yl]carbonyl}cyclohexyl)benzamide]"
,,< 1,"N#Cc1ccc(C(=O)N[C@@H]2CCCC[C@@H]2C(=O)N2CC[C@@H]3[C@H](c4ccc[nH]4)Nc4ccccc4[C@@H]32)cc1 [Example 322, 4-Cyano-N-((1R,2S)-2-{[(3aR,4R,9bR)-4-(1H-pyrrol-2-yl)-2,3,3a,4,5,9b-hexahydro-1H-pyrrolo[3,2-c]quinolin-1-yl]carbonyl}cyclohexyl)benzamide]"
,,< 1,"NC(=O)c1ccc(C(=O)N[C@@H]2CCCC[C@@H]2C(=O)N2CC[C@@H]3[C@H](c4ccc[nH]4)Nc4ccccc4[C@@H]32)cc1 [Example 323, N-((1R,2S)-2-{[(3aR,4R,9bR)-4-(1H-Pyrrol-2-yl)-2,3,3a,4,5,9b-hexahydro-1H-pyrrolo[3,2-c]quinolin-1-yl]carbonyl}cyclohexyl)terephthalamide]"
,,< 10,"O=C(Nc1ccccc1)N[C@@H]1CCCC[C@@H]1C(=O)N1CCc2c(-c3ccccc3)nc3ccccc3c21 [Example 326, N-Phenyl-N′-{(1R,2S)-2-[(4-phenyl-2,3-dihydro-1H-pyrrolo[3,2-c]quinolin-1-yl)carbonyl]cyclohexyl}urea]"
